This note sets out measurements from US11932850B2, “Cancer chemoprevention with STAT3 blockers” (Jill M. Siegfried, LLC, priority 2018, dated 2024).

Data set [1] concerns M1 macrophages, M2 macrophages, MDSCs. Nature of the data set: Flow cytometry of immune cells isolated from lungs of NNK mice. Format: in vivo. From the text: STAT3 also plays a central role in immune evasion. STAT3 specifically orchestrates immunosuppression by promoting M2 macrophage and myeloid-derived suppressor cells (MDSCs) activity while suppressing M1 macrophage function [Su et al. Int. J. Mol. Science 19: pll:E1803, 2018]. Thus STAT3 inhibition by CS3D should favor an antitumor immune response by enhancing M1 macrophage activity.
Lungs from mice were digested with RPMI media containing collagenase and DNase to obtained single cell suspension. The cells were counted and 1×10^6 cells were staining with fluorescent labeled CD45, CD11b, MHC II, Ly6C and F4/80. The labeled cells were gated and data acquired on LSR fortessa (BD Biosciences) and further analysed by Flowjo.

Data set [2] deals with 201T cells. In words: Soft agar colony forming assay, 201T. Format: cell-based, human. From the text:
1 hr after treatment with EGF.
Following the transfection protocol described above, cells transfected with either CS3D or CS3M were detached from the plate using Trypsin-EDTA (Life Technologies) and seeded at a density of 2×10^4 cells/well (in a 6-well plate) in soft agar to determine the ability of cells to grow in an anchorage-independent setting. Sea Plaque Agarose (Lonza—Rockland, Maine) was used to prepare 0.8% base agarose layer and a 0.48% upper agarose layer containing the transfected cells. 1 ml of appropriate growth media was added into each well and incubated at growth conditions of 37° C. with 5% CO2. Media was replaced every 3-4 days and colony formation was monitored. After 15-20 days, the media was aspirated, and wells were incubated with crystal violet in 10% formalin for 1 h. Using a dissecting scope, colonies were photographed in a 6-well plate (with 4 quadrants/well) using ImageJ software analysis to automatically count colonies, using 35 pixels as a cut-off.

For data set [3], the system named is p-STAT3, p-NFkB, VEGF, CD31, IL-6, COX2 in lungs.
Data set [4] has as its system c-Myc mRNA in 201T cells. Nature of the data set: RT-qPCR of c-Myc mRNA after EGF, 201T. The note with it: single transfection, EGF 10 ng/ml 1.5 hr. The data set is classed as cell-based, human. (In qPCR the cycle at which signal appears reflects the starting amount.)
The target of data set [5] is pSTAT3 and total STAT3 in H1975 cells (Homo sapiens, UniProt P40763).
Chain of pSTAT3 and total STAT3 in H1975 cells (P40763 2-770 limits assumed): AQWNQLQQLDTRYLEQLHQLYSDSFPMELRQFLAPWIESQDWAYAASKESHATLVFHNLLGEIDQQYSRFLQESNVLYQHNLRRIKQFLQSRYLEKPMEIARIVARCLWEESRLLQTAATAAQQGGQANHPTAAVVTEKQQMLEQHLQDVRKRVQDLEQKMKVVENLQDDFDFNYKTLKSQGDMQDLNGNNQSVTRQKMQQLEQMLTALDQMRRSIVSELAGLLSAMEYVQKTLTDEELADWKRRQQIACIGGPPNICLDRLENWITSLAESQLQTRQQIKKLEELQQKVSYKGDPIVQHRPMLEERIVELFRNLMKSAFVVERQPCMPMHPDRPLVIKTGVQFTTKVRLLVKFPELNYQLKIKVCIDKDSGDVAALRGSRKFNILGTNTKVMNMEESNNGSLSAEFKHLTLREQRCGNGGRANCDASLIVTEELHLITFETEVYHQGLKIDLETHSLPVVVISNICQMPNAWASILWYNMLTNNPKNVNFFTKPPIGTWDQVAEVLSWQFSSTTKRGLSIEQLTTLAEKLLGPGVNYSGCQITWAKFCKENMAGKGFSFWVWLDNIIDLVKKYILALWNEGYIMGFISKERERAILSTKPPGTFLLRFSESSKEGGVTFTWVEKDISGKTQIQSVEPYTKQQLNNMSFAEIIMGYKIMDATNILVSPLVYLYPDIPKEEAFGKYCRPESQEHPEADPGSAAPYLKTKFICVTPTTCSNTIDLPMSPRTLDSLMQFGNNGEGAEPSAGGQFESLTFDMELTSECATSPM
The test system of data set [6] is c-Myc protein in 201T cells. The note with it: 3 hr after EGF, compared to CS3M or lipofectamine alone. Here is the method:
(§1) c-Myc is a STAT3 target gene that is known to be activated by EGF treatment. To investigate the effects of STAT3 blockade on c-Myc expression, cells were first treated with 10 ng/ml EGF for 1.5 hr (deemed the optimal time to observe increased c-Myc RNA), 24 hr after transfection of the cyclic oligonucleotides. RT-qPCR was used to assess differences in mRNA expression in STAT3 decoy-treated versus mutant decoy-treated cells (FIGS. 5A and 5B). […] Cells were treated 24 hours post-transfection with EGF (10 ng/ml) for 1.5 hr and mRNA was harvested from wild-type (A) and mutant EGFR T790M (B) NSCLC cell lines, and mRNA expression was assessed by RT-qPCR. Relative mRNA expression was normalized to GAPDH mRNA levels as an internal control. Statistical significance was determined as *P<0.05. […] Cells were treated 24 hours post-transfection with EGF (10 ng/ml) for 1.5 hr and mRNA was harvested from mutant EGFR T790M (B) NSCLC cell lines. […] Cells were is treated as in FIGS. 5A and 5B, and 3 hr after EGF treatment, lysates were collected from wild-type 201T (left) and mutant EGFR […] H1975 (right) NSCLC cell lines.

Data set [7] concerns c-Myc protein in H1975 cells. The note with it: H1975, 3 hr after EGF. Here is the method:
as §1

The test system of data set [8] is STAT1 target genes (IKBKE, IFT2, IFT1, IRF7) and NFκB target genes. The settings on record: CS3D compared to CS3M treated cells. The protocol: as §1
Where [9] appears, read: NNK 4 weeks then 1 week of drug administration.
The mark [10] stands for this setting: 8 weeks post-treatment, vs CS3M.
[11] abbreviates: H1975, IL-6 50 ng/mL 1 hr, compared to CS3M or lipofectamine alone.

For “CS3D (DNA GATTTACGGGAAATGCSCATTTCCC; cyclic decoy with two hexaethylene glycol linkers, further chemistry not given here)”, in data set [1] (setting [9]), the M2 macrophages stood at 5.53% and the MDSCs is recorded as 14.2%. Besides, the “proportion of M1 macrophages in the lung TME” value in data set [1] (NNK 4 weeks then 1 week of drug, vs CS3M) is reported as “increasing”. The “disruption of anchorage-independent growth” value in data set [2] (300 nM single transfection, at 20 days, 201T, compared to CS3M) worked out at 50%. Besides, in data set [2] (one transfection, 201T (FIG. 4A)), the “reduction of colony formation in soft agar” value is 55%. Also, in data set [3] (8 weeks after completion of therapy, vs CS3M), the “IL-6 levels in the airways” value is “upregulated”. In addition, the COX-2 expression result in data set [3] (8 weeks after end of treatment, vs CS3M) was “increase”. Further, in data set [3] (setting [10]), the “VEGF staining in the airways” value is reported as “decrease”, the “activated phospho-STAT3 protein” value is given as “long-term reduction” and the phospho-NF-kB activation result is recorded as “decrease”. Besides, the “endothelial marker CD31 expression” value in data set [3] (premalignant stage, data not shown) was “suppresses”. Also, the “inhibition in mRNA level of c-Myc” value in data set [4] is 50%. In addition, in data set [5] (setting [11]), the “reduction in nuclear pSTAT3” value is on record as 35% and the “reduction in nuclear total STAT3” value came out at 35%. For the same substance, the “effect on cytoplasmic pool of total STAT3” value in data set [5] (H1975, IL-6 stimulated) is “little effect”. In addition, the “reduction in c-Myc protein expression” value in data set [6] came out at 31%. Moreover, the “reduction in c-Myc protein expression” value in data set [7] is recorded as 40%. Further, in data set [8], the “mRNA expression of STAT1 and NFκB target genes” value was “no decrease in mRNA expression level”.
